The text below walks through data of patent US12667557B2, “Method for treating EGFR-TKI-resistant non-small cell lung cancer by administration of anti-HER3 antibody-drug conjugate” (priority 2017, dated 2026).

Assay [1] deals with cell strain HCC827GR5. Put plainly: Cell proliferation suppressing activity (CellTiter Glo) against cell strain HCC827GR5. Particulars: 7th day of treatment. Type of assay: cell-based, human. A general note: ATP-based viability assays read luminescence as a measure of living cells.
Method: Cell strain HCC827GR5 was cultured in a medium obtained by adding gefitinib at a final concentration of 1 μM into the aforementioned medium.
Cell strain HCC827GR5 was cultured in a medium obtained by adding gefitinib at a final concentration of 1 μM into RPMI1640 medium (manufactured by Sigma-Aldrich Corp.) containing R10 medium (10% fetal bovine serum and 1% penicillin-streptomycin B (manufactured by Wako Pure Chemical Industries, Ltd.)). After cell strain HCC827GR5 was cultured, the cells were detached by trypsin treatment and then collected. The number of cells in the cell suspension was measured, and the cells were suspended in RPMI1640 medium containing 10% fetal bovine serum. The suspension was adjusted to have a concentration of 100,000 cells/mL. 50 μL of each cell suspension was added to each well of SUMILON 96-well plate (manufactured by Sumitomo Bakelite Co., Ltd.) (5,000 cells/well), and culture was carried out. […] On the 7th day from the initiation of treatment, 50 μL of CellTiter Glo (manufactured by Promega Corp.) was added to each well and then the culture system was stirred for 2 minutes with a plate mixer. The plate was left to stand for 30 minutes under light-shielded conditions. An aliquot of 120 μL was taken from each well and was transferred onto a black microplate, and the luminescence values were measured with a luminometer.
Assay [2] concerns cell strain HCC827GR5 transplanted in nude mice. Put plainly: Antitumor effect on cell strain HCC827GR5 transplanted in nude mice. Format: in vivo, nude mice (BALB/cAJcl-nu/nu). Particulars: for Estimated tumor volume Average value: HER3-ADC (1) 10 mg/kg i.p. once a week, erlotinib 25 mg/kg oral six times a week; for Tumor growth inhibition ratio (%): compared with the control group, HER3-ADC (1) 10 mg/kg i.p., erlotinib 25 mg/kg oral. On the procedure:
Cell strain HCC827GR5 was cultured in RPMI1640 medium (manufactured by Sigma-Aldrich Corp.) containing R10 medium (10% fetal bovine serum and 1% penicillin-streptomycin B (manufactured by Wako Pure Chemical Industries, Ltd.)) and erlotinib at a final concentration of 1 μM, subsequently the cells were detached by trypsin treatment and then collected. The number of cells in the cell suspension was measured, and the cells were suspended in R10 medium. The suspension was adjusted to have a concentration of 75,000,000 cells/mL. 100 μL of the cell suspension thus prepared (7,500,000 cells) was transplanted subcutaneously into the ventral region of 6-week old female nude mice (BALB/cAJcl-nu/nu), and then after 7 days from tumor transplantation, at which the average value of the estimated […] tumor volume of the transplanted tumors became […], grouping was carried out. Then, drug administration was initiated (day 0). HER3-ADC (1) was dissolved in phosphate buffer saline (PBS), and the solution was adjusted to have a concentration of 1 mg/mL. Erlotinib was dissolved in a hydroxypropylmethyl cellulose (HPMC) solution, and the solution was adjusted to have a concentration of 2.75 mg/mL. To the single-agent treatment groups of each drug, from day 0 to day 49 at the maximum, prepared HER3-ADC (1) was administered intraperitoneally once a week (7 times in total) at a dose of 200 μL/mouse (10 mg/kg), and prepared erlotinib was administered orally six times a week (19 in total) at a dose of 0.18 mL/mouse (25 mg/kg). On the other hand, to the combination treatment group, HER3-ADC (1) and erlotinib were administered from day 0 at the same dose in the same schedule as those of the single-agent treatment groups. A control group, which was not subjected to administration, was also established. For all of the groups, ten mice were used per group. After the initiation of administration, the tumor diameters (major axis and minor axis) were measured twice a week (on days 0, 3, 7, 10, 14, 17, 21, 24, 28, 31, 35, 38, 41, 45, and 49), and the estimated tumor volumes in each group were calculated according to the following formula. Subsequently, the average value of the estimated tumor volume for each group was calculated. Estimated tumor volume (Volume, mm^3)=major axis (mm)×minor axis (mm)^2÷2
Furthermore, the tumor growth inhibition ratio of each group compared with the control group was calculated according to the following formula. Tumor growth inhibition ratio (%)=100−(average value of estimated tumor volume of treatment group÷average value of estimated tumor volume of control group×100)
From the viewpoint of animal ethics, the measurement for the control and erlotinib single-agent treatment groups was terminated at the 21st day since the estimated tumor volume reached 1,200 to 1,500 mm^3. Along with this, the calculation of the tumor growth inhibition ratio (%) was made up to day 21.

Assay [3] deals with cell strain HCC827GR5. The settings on record: reported in K. Yonesaka et al., Oncogene (2016) 35, 878-886; cited from earlier work.

Regarding `C#Cc1cccc(Nc2ncnc3cc(OCCOC)c(OCCOC)cc23)c1` [Erlotinib, erlotinib], the results for the “cell proliferation suppressing activity (% Control)” value in the assay on cell strain HCC827GR5 [1] (1 μg/mL of erlotinib (so in the source)), in the assay on cell strain HCC827GR5 [1] (3.3 μg/mL of erlotinib (so in the source)) and in the assay on cell strain HCC827GR5 [1] (10 μg/mL of erlotinib (so in the source)) were 69.2%, 52.6% and 31.7%, respectively. Further, the “Estimated tumor volume Average value” in assay [2] (Day 0) was 124.5 mm^3; in assay [2] (Day 3) it was 189.7 mm^3; in assay [2] (Day 7), 347.5 mm^3; in assay [2] (Day 10), 420.0 mm^3; in assay [2] (Day 14), 747.8 mm^3; in assay [2] (Day 17) it was 1117.9 mm^3. In addition, the “Estimated tumor volume Average value” in assay [2] (Day 21) is listed as 1225.5 mm^3. Moreover, the “Tumor growth inhibition ratio (%)” value in assay [2] (Day 0) stood at 2.7%; in assay [2] (Day 3), 22.0%; in assay [2] (Day 7) it was 26.0%; in assay [2] (Day 10) it was 29.1%; in assay [2] (Day 14), 14.5%; in assay [2] (Day 17), 20.4%. Moreover, the “Tumor growth inhibition ratio (%)” value in assay [2] (Day 21) is on record as 21.1%. The “antitumor effect / efficacy (in words)” value in assay [2] (on Day 21, Dunnet's Multiple Comparison test p<0.001 for the significant effects) is listed as “did not exhibit efficacy”. For the same molecule, the “sensitivity to alone therapy” value in the assay on cell strain HCC827GR5 [3] was “not to exhibit strong sensitivity”.
